Reference: patent US20050065114A1, “Therapeutical treatment with oligo-beta- (1,3) -glucans, drugs used in said treatment” (priority 2003, published 2005)
Values joined by “and” are separate entries in the source; they are usually repeats but may differ in a detail not shown here. Equal values may be shown once.

Key:
Format in all cases: in vivo, Balb/c mice
[1] = tested on: peritoneal cells (macrophages, lymphocytes, mast cells); assay: Differential count in peritoneal cells; details: for % of lymphocytes / % of macrophages / % of mast cells: peritoneal cells 24 hrs after i.p. injection; for Effect on migration of macrophage into the peritoneal cavity (in words): versus PBS control
Experimental: (§1) Using the same experimental groups as described above in Example 4, two extra microscopic slides from each experimental sample were prepared. After Accustain (modified Wright stain, Sigma) staining, the slides were evaluated using the optical microscope for presence of individual types of cells, i.e. macrophages, lymphocytes and mast cells.

[2] = tested on: cells from peripheral blood (monocytes, granulocytes); assay: Phagocytosis of HEMA particles by cells from peripheral blood after intraperitoneal injection; details: for % of phagocytosing granulocytes / % of phagocytosing monocytes: peripheral blood 24 hrs after i.p. injection; for Effect on phagocytosis in monocytes and granulocytes (in words): peripheral blood, versus PBS control
Experimental: A group of Balb/c mice (Jackson laboratory, Bar Harbor, ME, USA) has been injected intraperitoneally with either PBS (Control; Sigma, St. Louis, Mo., USA), Laminaritetraose or Laminaripentaose. 24 hrs later, mice were sacrified, peripheral blood from the orbital plexus was collected into heparine (5 IU/ml) (Sigma).
After counting, a test of phagocytosis of HEMA particles (synthetic microspheres prepared from 2-hydroxyethylmethacrylate copolymer) was performed as described in: Rembaum et al., 1976, Vetvicka et al. 1982, Bilej et al., 1989.
0.1 ml of heparinized fresh blood was added to 0.05 ml of diluted HEMA particles (5×10^8/ml) and incubated for 60 minutes at 37° C. with occasional gentle agitation.
After the end of incubation, the cell suspension was smeared over microscope slides. Smears were evaluated under the optical microscope after Accustain (modified Wright stain, Sigma) staining.
Cells with at least three engulfed particles were considered to be positive.

[3] = tested on: peripheral blood cells (monocytes, lymphocytes, granulocytes); assay: Differential count in blood; details: for % of granulocytes / % of lymphocytes / % of monocytes: peripheral blood 24 hrs after i.p. injection; for Effect on number of granulocytes in the peripheral blood (in words): versus PBS control
Experimental: as §1, with “3,” for “4,”, “monocytes,” for “macrophages,”, “granulocytes.” for “mast cells.”

[4] = tested on: TNF-alpha; assay: Cytokine level in peripheral blood: TNF-alpha in serum by OptEIA Mouse TNF-alpha ELISA; details: for TNF-alpha level (Table 6, same experiments as Table 5): 250 μg/mouse, unit not given in Table 6 (Table 5: pg/ml); for Relative activity on TNF-alpha level (in words): comparison between substances, Table 6, 24 and 48 h; for Increase of TNF-alpha secretion compared with Lentinan (in words): low doses, indirect activation of macrophages and cytotoxic T lymphocytes
Experimental: Balb/c mice were intraperitoneally injected with 50 μg of Laminaritetraose, Laminaripentaose, Laminarin or Lentinan (purchased from NIH, Bethesda, Md., USA) in PBS.
After various time intervals (30, 60 and 90 minutes, respectively), after the injection of Laminaritetraose, Laminaripentaose, Laminarin, Lentinan only, the mice were killed and blood was collected in Eppendorf tubes.
Subsequently, the serum of the collected blood was separated, collected and stored at −80° C. for no more than 1 week.
The level of TNF-alpha in the serum samples was evaluated using a commercial kit marketed as OptEIA Mouse TNF-alpha (Mono/Mono) Set by the Company Pharmingen, San Diego, Calif., USA); the manufacturer's instructions were followed.
In connection with the experiments carried out by Applicants, Balb/c mice were intraperitoneally injected with various doses (50, 100, and 250 μg) of Soluble laminarin and Lentinan (from NIH, Bethesda, Md., USA) in PBS.
Control mice were treated with PBS only. […]
Subsequently, the serum was prepared, collected and stored at −80° C. for no more than 1 week.
The level of TNF-alpha in serum samples was evaluated using a commercial kit marketed as OptEIA Mouse TNF-alpha (Mono/Mono) Set by the Company Pharmingen, San Diego, Calif., USA); the manufacturer's instructions were followed.
In that respect, The wells of 96-well plates were coated with 0.1 ml/well of capture antibody (provided in the above kit) diluted in coating buffer (also provided in the above kit); the expression “capture antibody” designates first antibody used for coating of wells; this antibody captures the tested cytokines from the solution; in this assay it was anti-mouse-TNF-alpha monoclonal antibody.
The plates were sealed and incubated overnight at 4° C.
Individual wells were emptied by aspiration and washed 3 times with over 300 el/well of wash buffer (also provided in the kit).
Reaction was blocked with 200 el/well of assay dilutant diluent (also provided in the kit) and by incubation for 60 minutes at room temperature.
Again, individual wells were emptied by aspiration and washed 3 times with over 300 el/well of the same wash buffer.
Standards (also provided in the kit) and samples of serum were diluted in assay diluent (also provided in the kit) and pipetted (100 μl/well) in appropriate wells; as far as the dissolution rate is concerned standards (part of the kit) were diluted according to the instructions into following concentrations: 1000 pg/ml, 500 pg/ml, 250, 125, 62.5, 31.3, and 15.6 pg/ml.
The plates were sealed and incubated for 60 minutes at room temperature. Individual wells were aspirated and washed 3 times with over 300 μl/well of the same wash buffer. A quantity of 100 μl/well of a working detector (antibody-avidin-HRP conjugate also provided in the kit) was added into each well.
The plates were sealed with plastic foils and incubated for 60 minutes at room temperature. Individual wells were emptied by aspiration and washed 3 times with over 300 μl/well of same wash buffer.
A quantity of 100 μl/well of substrate solution (also provided in the kit) was added to each well and the plates were incubated for 30 minutes in the dark at room temperature; “substrate solution” is formed by mixing a substrate reagent A containing hydrogen peroxide and Substrate reagent B containing 3,3′,5,5′-tetramethylbenzidine in organic solvent; when mixed together, the reagent reacts with peroxidase-labeled conjugates to develop a blue color.
A quantity of 50 μl/well of stop solution provided in the kit and adapted to stop the reaction was added to each well and the optical density was determined using a STL ELISA reader (marketed by Tecan U.S., Research Triangle Park, N.C.) at 450 nm with a correction at 570 nm.
The concentration of TNF-alpha, in pg/ml, in the blood of the mice treated as hereabove disclosed has been determined at the following moments: 30, 60 and 90 minutes after the injection of Laminaritetraose, Laminaripentaose, Lentinan and control. […]

[5] = tested on: peritoneal macrophages; assay: Phagocytosis of HEMA particles by cells from peritoneal cavity after intraperitoneal injection; details: for % of phagocytosing macrophages: peritoneal cells 24 hrs after i.p. injection; for Effect on phagocytosis of peritoneal macrophages (in words): peritoneal cells, versus PBS control
Experimental: A group of Balb/c mice (Jackson laboratory, Bar Harbor, Me., USA) has been injected intraperitoneally with either PBS (control), Laminaritetraose or Laminaripentaose. 24 hrs later, mice were sacrificed, peritoneal cells were collected into Hanks medium (Sigma).
After counting the cells in hemocytometer, the peritoneal cells were diluted to lxlO7 cells in RPMI 1640 medium (Sigma) with 5% fetal calf serum (Hyclone, Logan, Utah, USA).
2×10^6 cells in 0.2 ml of RPMI 1640 medium supplemented with 5% fetal calf serum were mixed with the same volume of HEMA particles (5×10^8/ml).
The suspension was incubated for 60 minutes at 37° C. with occasional agitation. Incubation was terminated by centrifugation (150 g for 5 minutes) and the pellet was resuspended.
Macrophages with ingested particles were scored under the optical microscope in smears after Accustain (modified Wright stain, Sigma) staining.
Cells with six or more engulfed particles were considered to be positive.

[6] = individual values, cells with at least three engulfed HEMA particles positive
[7] = mean, at least three engulfed HEMA particles
[8] = individual values, cells with six or more engulfed HEMA particles positive
[9] = mean, six or more engulfed HEMA particles

Structure (SMILES)	% of lymphocytes ([1]; individual values)	% of macrophages ([1]; individual values)	% of mast cells ([1]; individual values)	% of lymphocytes ([1]; mean)	% of macrophages ([1]; mean)	% of mast cells ([1]; mean)	Effect on migration of macrophage into the peritoneal cavity (in words) [1]	% of phagocytosing granulocytes [2, 6]	% of phagocytosing monocytes [2, 6]	% of phagocytosing granulocytes [2, 7]	% of phagocytosing monocytes [2, 7]	Effect on phagocytosis in monocytes and granulocytes (in words) [2]	% of granulocytes ([3]; individual values)	% of lymphocytes ([3]; individual values)	% of monocytes ([3]; individual values)	% of granulocytes ([3]; mean)	% of lymphocytes ([3]; mean)	% of monocytes ([3]; mean)	Effect on number of granulocytes in the peripheral blood (in words) [3]	Concentration of TNF alpha in blood of treated mice ([4]; 50 μg/mouse i.p., 30 min)	other results
OC[C@H]1O[C@@H](O[C@@H]2[C@@H](O)[C@H](O[C@@H]3[C@@H](O)[C@H](O[C@@H]4[C@@H](O)[C@H](O)O[C@H](CO)[C@H]4O)O[C@H](CO)[C@H]3O)O[C@H](CO)[C@H]2O)[C@H](O)[C@@H](O)[C@@H]1O [Laminaritetraose, β-D-glucopyranosyl-(1→3)-β-D-glucopyranosyl-(1→3)-β-D-glucopyranosyl-(1→3)-β-D-glucopyranose]	45.9% and 50.4% and 44.1%	41.2% and 43.6% and 46.8%	12.9% and 6.0% and 9.1%	46.8%	43.9%	9.3%	stimulate the migration of macrophage	28.6% and 32.3% and 32.6%	36.8% and 30.9% and 39.8%	31.2%	35.8%	strongly stimulate phagocytosis	33.2% and 34.4% and 30.1%	57.7% and 55.6% and 61.4%	9.1% and 10.0% and 8.5%	32.6%	58.2%	9.2%	increase the number of granulocytes	55.7 pg/mL	Concentration of TNF alpha in blood of treated mice ([4]; 50 μg/mouse i.p., 60 min): 103.0 pg/mL; Concentration of TNF alpha in blood of treated mice ([4]; 50 μg/mouse i.p., 90 min): 35.3 pg/mL; Concentration of TNF alpha in blood of treated mice ([4]; 100 μg/mouse i.p., 30 min): 39.0 pg/mL; Concentration of TNF alpha in blood of treated mice ([4]; 100 μg/mouse i.p., 60 min): 18.4 pg/mL; Concentration of TNF alpha in blood of treated mice ([4]; 100 μg/mouse i.p., 90 min): 13.6 pg/mL; Concentration of TNF alpha in blood of treated mice ([4]; 250 μg/mouse i.p., 30 min): 27.3 pg/mL; Concentration of TNF alpha in blood of treated mice ([4]; 250 μg/mouse i.p., 60 min): 152.3 pg/mL; Concentration of TNF alpha in blood of treated mice ([4]; 250 μg/mouse i.p., 90 min): 11.1 pg/mL; TNF-alpha level (Table 6, same experiments as Table 5) ([4]; 24 hours): 28.1 pg/mL; TNF-alpha level (Table 6, same experiments as Table 5) ([4]; 48 hours): 35.9 pg/mL; Relative activity on TNF-alpha level (in words) [4]: more active than yest derived glucan (Lentinan); Increase of TNF-alpha secretion compared with Lentinan (in words) [4]: significantly higher; % of phagocytosing macrophages [5, 8]: 46.2% and 51.5% and 44.5%; % of phagocytosing macrophages [5, 9]: 47.4%; Effect on phagocytosis of peritoneal macrophages (in words) [5]: strongly stimulate phagocytosis
OC[C@H]1O[C@@H](O[C@@H]2[C@@H](O)[C@H](O[C@@H]3[C@@H](O)[C@H](O[C@@H]4[C@@H](O)[C@H](O[C@@H]5[C@@H](O)[C@H](O)O[C@H](CO)[C@H]5O)O[C@H](CO)[C@H]4O)O[C@H](CO)[C@H]3O)O[C@H](CO)[C@H]2O)[C@H](O)[C@@H](O)[C@@H]1O [Laminaripentaose, β-D-glucopyranosyl-(1→3)-β-D-glucopyranosyl-(1→3)-β-D-glucopyranosyl-(1→3)-β-D-glucopyranosyl-(1→3)-β-D-glucopyranose]	48.1% and 48.0% and 34.7%	50.4% and 48.1% and 59.8%	1.5% and 3.9% and 5.5%	43.4%	52.8%	3.6%	stimulate the migration of macrophage	40.8% and 42.5% and 46.4%	41.6% and 43.1% and 49.6%	43.2%	44.8%	strongly stimulate phagocytosis	33.8% and 35.9% and 36.9%	57.1% and 54.1% and 53.3%	9.1% and 1.0% and 9.8%	35.5%	54.8%	9.4%	increase the number of granulocytes	34.3 pg/mL	Concentration of TNF alpha in blood of treated mice ([4]; 50 μg/mouse i.p., 60 min): 37.0 pg/mL; Concentration of TNF alpha in blood of treated mice ([4]; 50 μg/mouse i.p., 90 min): 71.3 pg/mL; Concentration of TNF alpha in blood of treated mice ([4]; 100 μg/mouse i.p., 30 min): 53.0 pg/mL; Concentration of TNF alpha in blood of treated mice ([4]; 100 μg/mouse i.p., 60 min): 46.5 pg/mL; Concentration of TNF alpha in blood of treated mice ([4]; 100 μg/mouse i.p., 90 min): 93.2 pg/mL; Concentration of TNF alpha in blood of treated mice ([4]; 250 μg/mouse i.p., 30 min): 42.1 pg/mL; Concentration of TNF alpha in blood of treated mice ([4]; 250 μg/mouse i.p., 60 min): 36.4 pg/mL; Concentration of TNF alpha in blood of treated mice ([4]; 250 μg/mouse i.p., 90 min): 24.4 pg/mL; TNF-alpha level (Table 6, same experiments as Table 5) ([4]; 24 hours): 79.6 pg/mL; TNF-alpha level (Table 6, same experiments as Table 5) ([4]; 48 hours): 38.7 pg/mL; Relative activity on TNF-alpha level (in words) [4]: more active than Laminaritetraose; Relative activity on TNF-alpha level (in words) ([4]; listed as laminaripentaose): more active than yest derived glucan (Lentinan); Increase of TNF-alpha secretion compared with Lentinan (in words) [4]: significantly higher; % of phagocytosing macrophages [5, 8]: 54.9% and 57.3% and 62.7%; % of phagocytosing macrophages [5, 9]: 58.3%; Effect on phagocytosis of peritoneal macrophages (in words) [5]: strongly stimulate phagocytosis
